From patent publication US20230203060A1 (GENFLEET THERAPEUTICS (SHANGHAI) INC., priority 2020, published 2023)
Like-named read-outs stand apart in the source and are kept apart here.

Key:
Type in all cases: cell-based, human
[1] = system: KRAS G12C mutant NCI-H358 cells; experiment: Cell proliferation inhibition experiment, 3D spheroid, CellTiter-Glo, NCI-H358; conditions: NCI-H358 (KRAS G12C mutant) 3D spheroid, 5 days with compound, CellTiter-Glo, read-out: H358 IC50
In short: (§1)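 3D spheroid format; 800 H358 / 400 A549 cells/well, 2% FBS. Cpd 3.16-fold series, 0.1% DMSO, 5 d. Readout CellTiter-Glo luminescence; IR% vs DMSO control and medium blank; 4-parameter IC50.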

[2] = system: A549 cells (KRAS G12S mutant); experiment: Cell proliferation inhibition experiment, 3D spheroid, CellTiter-Glo, A549; conditions: A549 (KRAS G12S mutant) 3D spheroid, 5 days with compound, CellTiter-Glo, read-out: A549 IC50
In short: as §1

[3] = system: KRAS G12C mutant MIA PaCa-2 cells; experiment: Cell proliferation inhibition experiment, 3D spheroid, CellTiter-Glo, MIA PaCa-2; conditions: 3D cell model in 384-well spheroid plate, 5 days, CellTiter-Glo, read-out: MIA-PaCa2 IC50
In short: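 Luminescent ATP read-out (CellTiter-Glo) after 5-day compound treatment of spheroids formed overnight from 200 MIA PaCa-2 cells/well; compounds in 3.16-fold series, 0.1% DMSO final. IC50 derived by four-parameter fit of percent inhibition, normalized to DMSO control and medium blank.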

[4] = Homo sapiens, MIA PaCa-2, 120 h

Row | Compound | IC50 ([1]; Homo sapiens, NCI-H358, 120 h) | IC50 ([2]; Homo sapiens, A549, 120 h) | IC50 [3, 4] | IC50 [1] | IC50 [2] | IC50 [3]
1 | C=CC(=O)N1CCN2Cc3c(NC(C)(C)C)nc(-c4c(O)cccc4F)c(Cl)c3OC[C@H]2C1 [Z71, 1-((6aR)-1-(tert-butylamino)-4-chloro-3-(2-fluoro-6-hydroxyphenyl)-6a,7,9,10-tetrahydro-12H-pyrazino[2,1-c]pyrido[3,4-f][1,4]oxazepin-8(6H)-yl)prop-2-en-1-one] | 275 nM | > 10000 nM | 467 nM | – | – | –
2 | C=CC(=O)N1CCN2C(=O)c3c(N4CCN(C)CC45CC5)nc(-c4c(O)cccc4F)c(Cl)c3OC[C@H]2C1 [Z57, (6aR)-8-acryloyl-4-chloro-3-(2-fluoro-6-hydroxyphenyl)-1-(7-methyl-4,7-diazaspiro[2.5]octan-4-yl)-6,6a,7,8,9,10-hexahydro-12H-pyrazino[2,1-c]pyrido[3,4-f][1,4]oxazepin-12-one] | 134 nM | > 30000 nM | 118 nM | – | – | –
3 | C=CC(=O)N1CCN2C(=O)c3c(-c4c(F)cccc4OC)nc(-c4c(O)cccc4F)c(Cl)c3OC[C@H]2C1 [Z55, (6aR)-8-acryloyl-4-chloro-3-(2-fluoro-6-hydroxyphenyl)-1-(2-fluoro-6-methoxyphenyl)-6,6a,7,8,9,10-hexahydro-12H-pyrazino[2,1-c]pyrido[3,4-f]oxazepin-12-one] | – | – | – | 134 nM | > 1000 nM | 361 nM
4 | C=CC(=O)N1CCN2C(=O)c3c(N4CCC5CN(C)CC54)nc(-c4c(O)cccc4F)c(Cl)c3OC[C@H]2C1 (stereo partly drawn) [Z47, (6aR)-8-acryloyl-4-chloro-3-(2-fluoro-6-hydroxyphenyl)-1-(5-methylhexahydropyrrolo[3,4-b]pyrrol-1(2H)-yl)-6,6a,7,8,9,10-hexahydro-12H-pyrazino[2,1-c]pyrido[3,4-f][1,4]oxazepin-12-one] | 47 nM | > 20000 nM | 42 nM | – | – | –
5 | C=CC(=O)N1CCN2C(=O)c3c(N4CCN(C5COC5)CC4C)nc(-c4c(O)cccc4F)c(Cl)c3OC[C@H]2C1 (stereo partly drawn) [Z239, (6aR)-8-acryloyl-4-chloro-3-(2-fluoro-6-hydroxyphenyl)-1-(2-methyl-4-(oxetan-3-yl)piperazin-1-yl)-6,6a,7,8,9,10-hexahydro-12H-pyrazino[2,1-c]pyrido[3,4-f][1,4]oxazepin-12-one] | 22.9 nM | 13800 nM | 41.6 nM | – | – | –
6 | C=CC(=O)N1CCN2C(=O)c3c(O[C@@H]4CCN(C)C4)nc(-c4c(O)cccc4F)c(Cl)c3OC[C@H]2C1 [Z64, (6aR)-8-acryloyl-4-chloro-3-(2-fluoro-6-hydroxyphenyl)-1-(((R)-1-methylpyrrolidin-3-yl)oxy)-6,6a,7,8,9,10-hexahydro-12H-pyrazino[2,1-c]pyrido[3,4-f][1,4]oxazepin-12-one] | 287 nM | > 30000 nM | 268 nM | – | – | –
7 | C=CC(=O)N1CCN2C(=O)c3c(OCC4CCN(C)CC4)nc(-c4c(O)cccc4F)c(Cl)c3OC[C@H]2C1 [Z40, (6aR)-8-acryloyl-1-((1-methylpiperidin-4-yl)methoxy)-4-chloro-3-(2-fluoro-6-hydroxyphenyl)-6,6a,7,8,9,10-hexahydro-12H-pyrazino[2,1-c]pyrido[3,4-f][1,4]oxazepin-12-one] | 91 nM | > 30000 nM | 57 nM | – | – | –
8 | C=CC(=O)N1CCN2C(=O)c3c(Nc4c(C)ccnc4C(C)C)nc(-c4c(O)cccc4F)c(F)c3OC[C@H]2C1 [Z9, (6aR)-8-acryloyl-4-fluoro-3-(2-fluoro-6-hydroxyphenyl)-1-((2-isopropyl-4-methylpyridin-3-yl)amino)-6,6a,7,8,9,10-hexahydro-12H-pyrazino[2,1-c]pyrido[3,4-f][1,4]oxazepin-12-one] | 23 nM | 11300 nM | 95 nM | – | – | –
9 | C=CC(=O)N1CCN2C(=O)c3c(N4[C@@H]5CC[C@H]4COC5)nc(-c4c(O)cccc4F)c(Cl)c3OC[C@H]2C1 [Z38, (6aR)-8-acryloyl-1-((1R,5S)-3-oxa-8-azabicyclo[3.2.1]octan-8-yl)-4-chloro-3-(2-fluoro-6-hydroxyphenyl)-6,6a,7,8,9,10-hexahydro-12H-pyrazino[2,1-c]pyrido[3,4-f][1,4]oxazepin-12-one] | 55 nM | > 10000 nM | 88 nM | – | – | –
10 | C=CC(=O)N1CCN2C(=O)c3c(-c4ccnn4C(C)C)nc(-c4c(O)cccc4F)c(Cl)c3OC[C@H]2C1 [Z77, (6aR)-8-acryloyl-4-chloro-3-(2-fluoro-6-hydroxyphenyl)-1-(1-isopropyl-1H-pyrazol-5-yl)-6,6a,7,8,9,10-hexahydro-12H-pyrazino[2,1-c]pyrido[3,4-f][1,4]oxazepin-12-one] | 157 nM | > 20000 nM | 365 nM | – | – | –

The remaining molecules from weak to strong by IC50 ([1]; Homo sapiens, NCI-H358, 120 h), led by results:

Row | IC50 ([1]; Homo sapiens, NCI-H358, 120 h) | IC50 ([2]; Homo sapiens, A549, 120 h) | IC50 [3, 4] | IC50 [1] | IC50 [2] | IC50 [3] | Compound
11 | 145 nM | > 5000 nM | 237 nM | – | – | – | C=CC(=O)N1CCN2C(=O)c3c(N4CCCC45CCOC5)nc(-c4c(O)cccc4F)c(Cl)c3OC[C@H]2C1 (stereo partly drawn) [Z58, (6aR)-8-acryloyl-4-chloro-3-(2-fluoro-6-hydroxyphenyl)-1-(7-oxa-1-azaspiro[4.4]nonan-1-yl)-6,6a,7,8,9,10-hexahydro-12H-pyrazino[2,1-c]pyrido[3,4-f][1,4]oxazepin-12-one]
12 | 85 nM | 9480 nM | 98 nM | – | – | – | C=CC(=O)N1CCN2C(=O)c3c(N4CCSCC4)nc(-c4c(O)cccc4F)c(Cl)c3OC[C@H]2C1 [Z264, (6aR)-8-acryloyl-4-chloro-3-(2-fluoro-6-hydroxyphenyl)-1-thiomorpholino-6,6a,7,8,9,10-hexahydro-12H-pyrazino[2,1-c]pyrido[3,4-f][1,4]oxazepin-12-one]
13 | 51 nM | 5090 nM | 232 nM | – | – | – | C=CC(=O)N1CCN2C(=O)c3c(Nc4c(C)ccnc4C(C)C)nc(-c4ccccc4F)c(Cl)c3OC[C@H]2C1 [Z8, (R)-8-acryloyl-4-chloro-3-(2-fluorophenyl)-1-((2-isopropyl-4-methylpyridin-3-yl)amino)-6,6a,7,8,9,10-hexahydro-12H-pyrazino[2,1-c]pyrido[3,4-f][1,4]oxazepin-12-one]
14 | 50 nM | > 5000 nM | 73 nM | – | – | – | C=CC(=O)N1CCN2C(=O)c3c(N4CCO[C@@H](C)C4)nc(-c4c(O)cccc4F)c(Cl)c3OC[C@H]2C1 [Z23, (6aR)-8-acryloyl-4-chloro-3-(2-fluoro-6-hydroxyphenyl)-1-((S)-2-methylmorpholino)-6,6a,7,8,9,10-hexahydro-12H-pyrazino[2,1-c]pyrido[3,4-f][1,4]oxazepin-12-one]
15 | 42 nM | 9340 nM | 64 nM | – | – | – | C=CC(=O)N1CCN2C(=O)c3c(N4CCCC4)nc(-c4c(O)cccc4F)c(Cl)c3OC[C@H]2C1 [Z11, (6aR)-8-acryloyl-4-chloro-3-(2-fluoro-6-hydroxyphenyl)-1-(pyrrolidin-1-yl)-6,6a,7,8,9,10-hexahydro-12H-pyrazino[2,1-c]pyrido[3,4-f][1,4]oxazepin-12-one]
16 | 40 nM | > 20000 nM | 41 nM | – | – | – | C=CC(=O)N1CCN2C(=O)c3c(N4CCN(C)CC4)nc(-c4c(O)cccc4F)c(Cl)c3OC[C@H]2C1 [Z30, (6aR)-8-acryloyl-4-chloro-3-(2-fluoro-6-hydroxyphenyl)-1-(4-methylpiperazin-1-yl)-6,6a,7,8,9,10-hexahydro-12H-pyrazino[2,1-c]pyrido[3,4-f][1,4]oxazepin-12-one]
17 | 40 nM | > 1000 nM | 57 nM | – | – | – | C=CC(=O)N1CCN2C(=O)c3c(N4CCOC5(CCC5)C4)nc(-c4c(O)cccc4F)c(Cl)c3OC[C@H]2C1 [Z36, (6aR)-8-acryloyl-4-chloro-3-(2-fluoro-6-hydroxyphenyl)-1-(5-oxa-8-azaspiro[3.5]nonan-8-yl)-6,6a,7,8,9,10-hexahydro-12H-pyrazino[2,1-c]pyrido[3,4-f][1,4]oxazepin-12-one]
18 | 33 nM | > 5000 nM | 41 nM | – | – | – | C=CC(=O)N1CCN2C(=O)c3c(N4CCOC[C@H]4C)nc(-c4c(O)cccc4F)c(Cl)c3OC[C@H]2C1 [Z27, (6aR)-8-acryloyl-4-chloro-3-(2-fluoro-6-hydroxyphenyl)-1-((R)-3-methylmorpholino)-6,6a,7,8,9,10-hexahydro-12H-pyrazino[2,1-c]pyrido[3,4-f][1,4]oxazepin-12-one]
19 | 26 nM | > 5000 nM | 51 nM | – | – | – | C=CC(=O)N1CCN2C(=O)c3c(N4CCC5(CC5)C4)nc(-c4c(O)cccc4F)c(Cl)c3OC[C@H]2C1 [Z44, (6aR)-8-acryloyl-4-chloro-3-(2-fluoro-6-hydroxyphenyl)-1-(5-azaspiro[2.4]heptan-5-yl)-6,6a,7,8,9,10-hexahydro-12H-pyrazino[2,1-c]pyrido[3,4-f][1,4]oxazepin-12-one]
20 | 23 nM | > 10000 nM | 29 nM | – | – | – | C=CC(=O)N1CCN2C(=O)c3c(N4C[C@H]5CC[C@@H](C4)O5)nc(-c4c(O)cccc4F)c(Cl)c3OC[C@H]2C1 [Z62, (6aR)-8-acryloyl-4-chloro-1-((1R,5S)-8-oxa-3-azabicyclo[3.2.1]octan-3-yl)-3-(2-fluoro-6-hydroxyphenyl)-6,6a,7,8,9,10-hexahydro-12H-pyrazino[2,1-c]pyrido[3,4-f][1,4]oxazepin-12-one]
